Data: patent publication US6608109B2, “Composition comprising L-arginine as a muscle growth stimulant and use thereof” (priority 1991, dated 2003)

Legend:
[1] = Oral administration of M2 to test subjects: muscle mass and bodyfat; assay type: in vivo, human
Method: The above composition (identified as M2) was administered to test subjects. Those tests and the results are described in Example 2.

[2] = Oral administration of M2 / L-arginine to test subjects: side-effects and tolerance; assay type: in vivo, human; conditions: L-arginine taken alone on an empty stomach
Description: The subject was placed on L-Arginine M2 therapy.

## N=C(N)NCCCC(N)C(=O)O [L-Arginine, 2-amino-5-guanidinovaleric acid]
[1]; subject (1)
  Therapeutic dose for this subject: 15 grams L-Arginine per day
[1]; subject (2), totally empty stomach: 3+ hours
  dose required for Growth Hormone response out of pituitary gland: 15-20 grams
[2]
  disadvantages (side effects) from ingestion: headache, diarrhea, flatulence, depletion of electrolytes
